This is an account of results in patent US4808580A, “Naphtho[1,2-b][1,4]thiazepin-4(5H)-ones and use thereof in treatment of ischemia and blood pressure lowering” (Hoffmann-La Roche Inc., priority 1987, dated 1989).

Where a name gives a salt, the structure may show the parent alone.

The assay relates to Guinea Pig Ileum. Nature of the assay: Guinea pig ileum assay - tonic contraction (K+-induced contraction of longitudinal muscle; calcium channel blocking activity). In kind it is cell-based. To be noted: Cavia porcellus. As to the method: GUINEA PIG ILEUM ASSAY--TONIC CONTRACTION
Male guinea-pigs weighing from 300-400 grams were stunned and bled. The abdomen was opened and 10-15 cm of terminal ileum was carefully removed and cleaned and placed in Tyrode's Solution of the following composition: NaCl (8 g/l), KCl (0.2 g/l), MgCl2 (0.2 g/l.), CaCl2 (0.2 g/l), NaH2 PO4 (0.05 g/l), NaHCO3 (1.0 g/l) and Glucose (1 g/l). The solution was maintained at 37° C. and gassed with 95% O2 and 5% CO2. Portions of the ileum were placed over a glass rod, a shallow incision was made the length of the mesenteric attachment just severing the outer-longitudinal muscle layer. The longitudinal muscle was separated from the underlying circular muscle by gentle dissection (Rang, H. P. Annals of N.Y. Academy of Science Vol. 144, page 756, (1964)). The tissue was fixed at one end to a tissue holder, the other end was connected by a thread to a force transducer and suspended in a muscle bath containing Tyrode's Solution maintained at 37° C. and gassed with 95% O2 and 5% CO2. An initial tension of 500 mg was applied and the tissue allowed to equilibrate for 60 minutes prior to the start of the study. During this period the tissue was washed every 16 minutes. Each preparation, at 16 minute intervals, was challenged with KCl sufficient to yield a bath K^+ concentration of 80 mMK for 2 minutes, then washed with fresh solution. The 16 minute interval between K^+ challenges was maintained throughout the study. Upon stabilization of the responses to the K^+ challenge the test compound (potential calcium entry antagonist) was introduced into the bath 2 minutes prior to and during the 2 minute exposure to K^+ after which the bath was cleared and washed with fresh solution. Logarithmically increasing doses (up to 10^-4 M) of the potential antagonist were administered as the study progressed.
The measure of compound's ability to inhibit the tonic contraction of muscle is a measure of its activity as a calcium channel blocking agent.
As for `COc1ccc([C@@H]2Sc3ccc4ccccc4c3N(CCN(C)C)C(=O)[C@@H]2O)cc1` (relative stereo) [A, cis-rac-2,3-dihydro-3-hydroxy-5-[2-(dimethylamino)ethyl]-2-(4-methoxyphenyl)naphtho[2,1-b][1,4]thiazepin-4(5H)-one hydrochloride], the concentration for half-maximal inhibition (IC50) was 400 nM.
The result for `COc1ccc([C@@H]2Sc3ccc4ccccc4c3N(CCN(C)C)C(=O)[C@@H]2OC(C)=O)cc1` (relative stereo) [B, cis-rac-3-(acetyloxy)-2,3-dihydro-5-[2-(dimethylamino)ethyl]-2-(4-methoxyphenyl)naphtho[2,1-b][1,4]thiazepin-4(5H)-one (E)-2-butendioate] reads 450 nM; that for `COc1ccc([C@@H]2Sc3ccc4ccccc4c3N(CCN(C)C)C(=O)[C@@H]2O)cc1` [C, cis-(+)-2,3-dihydro-3-hydroxy-5-[2-(dimethylamino)ethyl]-2-(4-methoxyphenyl)naphtho[2,1-b][1,4]thiazepin-4(5H)-one hydrochloride semihydrate], 230 nM; that for `COc1ccc([C@@H]2Sc3ccc4ccccc4c3N(CCN(C)C)C(=O)[C@@H]2OC(C)=O)cc1` [D, cis-(+)-3-(acetyloxy)-2,3-dihydro-5-[2-(dimethylamino)ethyl]-2-(4-methoxyphenyl)naphtho[2,1-b][1,4]thiazepin-4(5H)-one (E)-2-butendioate], 390 nM.

What is called IC50 is the concentration needed to halve the response being measured.
